In the NIST ThermoML archive (doi:10.1021/je900193m):

Assay: xn = mol fraction of the nth substance listed
Settings: 101 kPa, Liquid, holographic inferometry, x1 = 0

CCOC(=O)OCC [diethyl carbonate] + CCCCCCC
Settings	binary diffusion coefficient [m2/s]
278.15 K	3.93e-09
281.15 K	3.96e-09
284.15 K	3.99e-09
287.15 K	4.02e-09
290.15 K	4.08e-09
293.15 K	4.14e-09
296.15 K	4.19e-09
299.15 K	4.27e-09
302.15 K	4.32e-09
305.15 K	4.4e-09
308.15 K	4.47e-09
311.15 K	4.54e-09
314.15 K	4.62e-09
317.15 K	4.7e-09
320.15 K	4.8e-09
323.15 K	4.88e-09
326.15 K	4.97e-09
329.15 K	5.07e-09
332.15 K	5.15e-09
335.15 K	5.25e-09
338.15 K	5.35e-09

COC(=O)OC [dimethyl carbonate] + CCCCCCC
Settings	binary diffusion coefficient [m2/s]
278.15 K	4.93e-09
281.15 K	4.97e-09
284.15 K	5.01e-09
287.15 K	5.07e-09
290.15 K	5.13e-09
293.15 K	5.19e-09
296.15 K	5.25e-09
299.15 K	5.33e-09
302.15 K	5.39e-09
305.15 K	5.48e-09
308.15 K	5.55e-09
311.15 K	5.63e-09
314.15 K	5.71e-09
317.15 K	5.8e-09
320.15 K	5.9e-09
323.15 K	5.99e-09
326.15 K	6.09e-09
329.15 K	6.2e-09
332.15 K	6.29e-09
335.15 K	6.41e-09
338.15 K	6.52e-09

CCOC(=O)CCCCC(=O)OCC [diethyl hexanedioate] + CCCCCCC
Settings	binary diffusion coefficient [m2/s]
278.15 K	1.93e-09
281.15 K	1.96e-09
284.15 K	1.99e-09
287.15 K	2.02e-09
290.15 K	2.06e-09
293.15 K	2.1e-09
296.15 K	2.15e-09
299.15 K	2.2e-09
302.15 K	2.25e-09
305.15 K	2.31e-09
308.15 K	2.37e-09
311.15 K	2.43e-09
314.15 K	2.49e-09
317.15 K	2.56e-09
320.15 K	2.62e-09
323.15 K	2.7e-09
326.15 K	2.78e-09
329.15 K	2.85e-09
332.15 K	2.92e-09
335.15 K	3.02e-09
338.15 K	3.11e-09
